Counter-ions that a name gives are not always drawn.
Columns and labels:
[1] = system: pyruvate dehydrogenase enzyme; assay: Proportion of active pyruvate dehydrogenase (PDHa/PDHt) in hearts of fat-fed rats after treatment in vivo; set-up: species or system rat; conditions: heart; for PDHa/PDHt Ratio, Compound: 0.6 millimoles/kg.
Method: The total amount of the enzyme present (PDHt) and the amount which is present in the active form (PDHa) are assessed by a method similar to that described by Taylor et al., Jour. […] The fat-feeding process is found to depress the ratio PDHa/PDHt from a normal value of about 0.7 to a value in the range from 0.05 to 0.2. Treatment of fat-fed rats with L(+)-2-(4-hydroxyphenyl)glycine, either parenterally or orally, increases this ratio in a dose-dependent manner, the threshold doses for this effect being 0.05 millimole/kg. by intravenous injection and in the range 0.1 to 0.2 millimole/kg. by subcutaneous injection or by oral administration. The ratio is increased to a value in the range 0.8-1.0 (i.e., above that for rats on normal diet) by doses of 0.6 millimole/kg. and above.
The increase in the PDHa/PDHt ratio effected by other compounds of formula (I) at a dose level of 0.6 millimoles/kg. is shown in the following Table: […]

[2] = system: glucose oxidation by isolated hearts from starved rats; assay: Glucose oxidation by isolated perfused hearts from starved rats (14C-glucose into CO2); type: cell-based; conditions: isolated starved-rat heart
Method: The rate of glucose oxidation by isolated hearts from starved rats is measured in a recirculating oxygenated perfusion system, by measuring the rate of incorporation of carbon-14 from carbon-14-labelled glucose into carbon dioxide using a method similar to those described by Morgan et al., Jour. […] The perfusate contains glucose, palmitate, insulin and bovine serum albumen.

[3] = system: pyruvate oxidation by diaphragm tissue from fat-fed rats; assay: Pyruvate oxidation by diaphragm tissue from fat-fed rats (14C-pyruvate into CO2, in vitro); type: cell-based, rat; conditions: for activation at 500 µM: concentration of 0.5 mM, read-out: % Stimulation (of pyruvate oxidation)
Method: The compounds of formula (I) were tested for their ability to increase pyruvate oxidation as follows:
Diaphragm tissue is obtained from rats fed on a high fat diet similar to "Diet B" described by Zaragoza and Felber, Horm, Metab. Res., 2, 323 (1970). Pyruvate oxidation by such tissue is assessed by measurement of the rate of incorporation of carbon-14 from carbon-14-labelled pyruvate into carbon dioxide in vitro, as described by Bringolf, Eur. Jour. Biochem., 26, 360 (1972). The rate of pyruvate oxidation is depressed by 50-75% compared with that by diaphragm tissue from rats fed on a normal diet. […] The threshold concentration for such stimulation is about 0.25 millimolar and maximum stimulation of 170% is achieved at concentrations of 4 millimolar and above.

[4] = system: heart of anesthetized beagle dogs; assay: Myocardial blood flow and metabolism in fasted, closed-chest, anesthetized, electrically paced beagle dogs; type: in vivo, dog
Method: The ability of compounds of formula (I) to reduce oxygen demand and affect the relative utilization of carbohydrate and lipid metabolites in the heart has been assessed by measuring the effect of the compounds on myocardial blood flow and metabolism in fasted, closed-chest, anesthetized beagle dogs, with cardiac catherization to enable simultaneous sampling of coronary sinus and arterial blood to be carried out. Coronary sinus blood flow is measured by the hydrogen gas clearance technique described by Aukland et al., Circulation Res., 14, 164 (1964). The heart is paced electrically at 155 beats/min. and recordings of hemodynamic parameters (blood pressure, left ventricular pressure and the first derivative of the latter) are made continuously. Control measurements of coronary blood flow are made and samples of blood taken at 40 minute intervals, both in an untreated animal and in the same animal dosed with an infusion of isoprenaline ([…].), which both stimulates cardiac contraction and increases plasma free fatty acid levels. The compound of formula (I) is then administered intravenously and measurements are made and samples taken again, 40 minutes and 90 minutes later. The blood samples from the artery and coronary sinus are analyzed for oxyhemoglobin, pyruvate and free fatty acid (FFA) content, differences between those of the arterial and coronary sinus blood, when multiplied by coronary blood flow, being a measure of oxygen consumption, pyruvate uptake and FFA uptake by the myocardium respectively.

[5] = system: rats in which diabetes has been induced by treatment with streptozotocin; assay: Blood glucose levels in streptozotocin-diabetic rats; type: in vivo, rat
Method: The ability of compounds of formula (I) to decrease blood glucose levels has been assessed by measuring their effect on blood glucose levels in rats in which diabetes has been induced by treatment with streptozotocin (85 mg/kg.). Four days after such treatment, a number of rats are given 1 millimole/kg of the compound by intraperitoneal injection and a similar number are given placebo. The doses are repeated after a further 24 hours and 48 hours. Blood samples are taken from a tail vein immediately before each dosage (which is 2 hours after removal of the animals from food) and 1, 2 and 3 hours after the third dose.

[6] = 0.02 to 0.1 millimole/kg. intravenously

With COC(=O)[C@@H](N)c1ccc(OC)cc1 [methyl L(+)-2-(4-methoxyphenyl)glycinate gluconate] the “effect on PDHa/PDHt ratio (predicted, 'will be')” value [1] was “significantly increased”.
With CCCOC(=O)[C@@H](N)c1ccc(O)cc1.Cl [n-propyl L(+)-2-(4-hydroxyphenyl)glycinate hydrochloride] the “effect on rate of glucose oxidation (predicted, 'will be')” value (“effect on rate … (predicted, 'will be')” below) [2] was “significantly increased”.
For NC(C(=O)O)c1ccc(O)cc1 (racemic) [DL (racemic)-2-(4-hydroxyphenyl)glycine], the “effect on PDHa/PDHt ratio relative to the L(+)-isomer” value ([1]; same dose levels) was “only half, or less than half, the effect of the L(+)-isomer” and the “effect on pyruvate oxidation relative to the L(+)-isomer” value [3] was “approximately half that of the L(+)-isomer”.
With NC(=O)[C@@H](N)c1ccc(O)cc1 [L(+)-2-(4-hydroxyphenyl)glycinamide] the “effects on myocardial pyruvate uptake, blood flow, oxygen consumption and FFA uptake (predicted, 'will be found')” value (“effects … (predicted, 'will be found')” for short) [4] was “effects similar to L(+)-2-(4-hydroxyphenyl)glycine”, the “PDHa/PDHt Ratio, Compound” value ([1]; p.o. (oral)) was 0.91 and the “PDHa/PDHt Ratio, Compound” value ([1]; s.c. (subcutaneous)) was 0.93. For the same compound, the activation at 500 µM ([3]; Rattus norvegicus) was 51% and the “effect on rate … (predicted, 'will be')” value [2] was “significantly increased”.
With CC(C)OC(=O)[C@@H](N)c1ccc(O)cc1 [Isopropyl L(+)-2-(4-hydroxyphenyl)glycinate] the activation at 500 µM ([3]; Rattus norvegicus) was 34%.
With COc1ccc([C@H](N)C(=O)O)cc1 [L(+)-2-(4-methoxyphenyl)glycine] the activation at 500 µM ([3]; Rattus norvegicus) was 79% and the “effect on rate … (predicted, 'will be')” value [2] was “significantly increased”.
For CCCCOC(=O)[C@@H](N)c1ccc(OC)cc1 [n-butyl L(+)-2-(4-methoxyphenyl)glycinate], the “effect on pyruvate oxidation (predicted, 'will be found')” value [3] was “stimulate pyruvate oxidation”.
For NC(C(=O)[O-])c1ccc(O)cc1.[Na+] (racemic) [DL-2-(4-hydroxyphenyl)glycine, sodium salt], the “effect on rate … (predicted, 'will be')” value [2] was “significantly increased”.
COC(=O)[C@@H](N)c1ccc(O)cc1 [Methyl L(+)-2-(4-hydroxyphenyl)glycinate] was tested, and the “PDHa/PDHt Ratio, Compound” value ([1]; p.o. (oral)) was 0.42, the “PDHa/PDHt Ratio, Compound” value ([1]; s.c. (subcutaneous)) was 0.69 and the activation at 500 µM ([3]; Rattus norvegicus) was 89%.
In the case of CCOC(=O)[C@@H](N)c1ccc(OC)cc1 [ethyl L(+)-2-(4-methoxyphenyl)glycinate], the “effect on pyruvate oxidation (predicted, 'will be found')” value [3] is reported as “stimulate pyruvate oxidation”.
N[C@@H](C(=O)O)c1ccc(O)cc1 [D(-)-2-(4-hydroxyphenyl)glycine, reference compound] was tested, and the “effect on PDHa/PDHt ratio” value ([1]; dose levels up to 1.2 millimole/kg.) was “very little effect”, the “effect on pyruvate oxidation” value ([3]; concentrations up to 4 mM) was “no significant effect” and the “effect on rate of glucose oxidation” value ([2]; 2 millimolar in perfusate) was “no significant effect”.
With N[C@H](C(=O)O)c1ccc(O)cc1 [L(+)-2-(4-hydroxyphenyl)glycine] the “effect on hemodynamic parameters (blood pressure, left ventricular pressure and its first derivative)” value [4, 6] was “no effect”, the “effect on myocardial FFA uptake” value [4, 6] was “generally decreased” and the “increase of myocardial blood flow” value [4, 6] was “up to 150%”. The “period of increased myocardial pyruvate uptake after dosing” value [4, 6] was “at least 90 minutes”, the “decrease of myocardial oxygen consumption” value ([4]; 0.02 to 0.1 millimole/kg. intravenously, in the presence of isoprenaline) was “about 20%” and the “increase of myocardial pyruvate uptake” value ([4]; 0.02 to 0.1 millimole/kg. intravenously, presence and absence of isoprenaline) was “at least 2 fold”. For the same compound, the PDHa/PDHt ratio ([1]; doses of 0.6 millimole/kg. and above, fat-fed untreated 0.05 to 0.2, normal diet about 0.7) was 0.8-1.0, the “threshold dose for increase of PDHa/PDHt ratio” value ([1]; intravenous injection) was 0.05 millimole/kg and the Emax ([3]; Rattus norvegicus, at concentrations of 4 millimolar and above, read-out: maximum stimulation of pyruvate oxidation) was 170%. The minimal effective concentration ([3]; Rattus norvegicus, in vitro, read-out: threshold concentration for stimulation of pyruvate oxidation) was about 250 µM, the rate of glucose oxidation ([2]; 2 millimolar in perfusate, normal rate 1.27+ 0.32, mean of 9 observations) was 4.77 µmol/h and the “blood glucose level after 2 days of treatment (immediately before the third dose)” value ([5]; 1 millimole/kg intraperitoneal daily, declined from 378± 8, placebo 383± 10, averages for 8 animals) was 356± 4 mg/100 ml. For the same compound, the “blood glucose level 2 hours after the third dose (minimum value)” value ([5]; 1 millimole/kg intraperitoneal, placebo 385± 7, averages for 8 animals) was 313± 7 mg/100 ml.
COc1ccc([C@H](N)C(=O)O)cc1 [L(+)-2-(4-methoxyphenyl)glycine, calcium salt] was tested, and the “effects … (predicted, 'will be found')” value [4] was “effects similar to L(+)-2-(4-hydroxyphenyl)glycine”.
For Br.COc1ccc([C@H](N)C(=O)OCCC(C)C)cc1 [3-methylbutyl L(+)-2-(4-methoxyphenyl)glycinate hydrobromide], the “effect on PDHa/PDHt ratio (predicted, 'will be')” value [1] was “significantly increased”.
In the case of COC(=O)[C@@H](N)c1ccc(O)cc1.Cl [methyl L(+)-2-(4-hydroxyphenyl)glycinate hydrochloride], the “effects … (predicted, 'will be found')” value [4] is reported as “effects similar to L(+)-2-(4-hydroxyphenyl)glycine”.
In the case of COc1ccc([C@H](N)C(=O)[O-])cc1.[K+] [L(+)-2-(4-methoxyphenyl)glycine, potassium salt], the “effect on PDHa/PDHt ratio (predicted, 'will be')” value [1] is reported as “significantly increased”.
COc1ccc([C@H](N)C(N)=O)cc1 [L(+)-2-(4-methoxyphenyl)glycinamide] was tested, and the “effect on PDHa/PDHt ratio (predicted, 'will be')” value [1] was “significantly increased” and the “effect on pyruvate oxidation (predicted, 'will be found')” value [3] was “stimulate pyruvate oxidation”.
For CC(C)CCOC(=O)[C@@H](N)c1ccc(O)cc1 [3-Methylbutyl L(+)-2-(4-hydroxyphenyl)glycinate], the “effects … (predicted, 'will be found')” value [4] was “effects similar to L(+)-2-(4-hydroxyphenyl)glycine”, the “PDHa/PDHt Ratio, Compound” value ([1]; s.c. (subcutaneous)) was 0.51 and the activation at 500 µM ([3]; Rattus norvegicus) was 32%.

— patent publication US4185116A, “L- and DL- Phenylglycines to treat diseases or conditions attributable to reduced carbohydrate metabolism” (priority 1976, dated 1980)
